# Several values for one entry are separate records, joined by “and”; a condition that tells them apart may be missing. Equal entries are not always repeated.
# Columns and labels:
# C. albicans [1] = assay: Mouse model of fungal invasion, kidney lesion count (Compound II, IP and oral); assay type: in vivo; conditions: mice, 1 mg IP and oral repeated, 2×10^6 C. albicans, sacrifice about t=19 h, FIG. 1
# Description: A mouse model of fungal invasion was used to examine the in vivo efficacy of Compound II in reducing invasion by C. albicans.
# Briefly, 30 min prior to infection (t=−30 min) 1 mg of Compound II in buffer (10 treatment mice) or buffer only (10 control mice) was administered IP. At t=0 all mice were inoculated with 2×10^6 C. albicans. At t=6 h and t=14 h the IP treatment with Compound II or buffer was repeated. In addition, at t=2, t=4 h, t=10 h, and t=18 h 1 mg of Compound II or buffer only was administered orally. The mice were sacrificed at about t=19 h and the kidneys of the mice were examined for histologic signs of fungal invasion by counting the number of lesions.
# [2] = test system: stationary phase C. albicans (MC295) containing HWP1-lacZ; assay: microbe, parasite or virus in culture; assay type: cell-based, Candida albicans; conditions: Candida albicans, read-out: C. albicans STAT IC50, stationary phase growth invasion assay
# C. albicans (MC303) = assay: C. albicans morphology assay (hyphae scored 1-5); conditions: invasion morphology phenotype, test compound at 10 μM, scale 1-5
# Description: In this assay, described in greater detail below, the morphology of cells was assessed and scored on a 1-5 scale. A score of 1 was assigned to non-hyphal cells, “yeast-like” cells and budding cells, and a score of 5 was assigned to cells having many, relatively long (wild-type) hyphae.
# A frozen stock culture was prepared by streaking C. albicans (MC303: ura3 Δ:: imm434/ura3Δ:: imm434 arg4::hisG/arg4::hisG ade2:: URA3:.pTEF1-lacZ/ADE2 hisl::hisG/HIS1 gal1::ARG4/GAL1) cells on a YPD agar plate and grown at 30° C. for 14-18 h. An isolated colony was added to 5 mL of YPD broth and grown on a roller drum (60 rpm) for 14-18 h at 30° C. Next, 600 μL of culture were aliquotted into 1 mL of 25% glycerol, and the tubes are stored at −80° C.
# Frozen MC303 C. albicans cell stock was struck for isolation of a single colony using a sterile loop on a YPD agar plate and grown at 30° C. for 14-18 h. A single colony was inoculated into 5 mL of YPD in a test tube and grown on a roller drum (60 rpm) for 2 days at 30° C. to late stationary phase (OD600˜30). For the assay, this stock was diluted to 2.5×10^5 cells/mL to make a 10× stock. Next, 10 μL of this cell stock was added to 80 μL of Inducing Media and 10 μL of 10× compound stock or DMSO in a Coming, tissue-culture treated, flat-bottom, microtiter plate. The plate was incubated at 37° C. for 24 h. Next, 10 μL of formaldehyde (37%) was added to each well and the cells were fixed for 10 min. The liquid was gently decanted from the plate and each well was examined under a microscope. Each well was photographed and observed cells are scored on a scale of 1-5. […] A 1 indicates cells are non-hyphal with only “yeast-like” cells and budding cells.
# Scores of 2, 3, and 4 indicate shorter length or reduced quantity of hyphae when compared with WT (2 being very near non-hyphal and 4 being close to WT).
# [3] = test system: logarithmic phase C. albicans (MC295) containing HWP1-lacZ; assay: microbe, parasite or virus in culture; assay type: cell-based; conditions: Candida albicans, read-out: C. albicans LOG IC50, logarithmic phase growth invasion assay (converted)
# [4] = test system: HepG2 human hepatoma cells; conditions: 4 h
# Description: Mammalian Cell Toxicity Assay
# To investigate the toxicity of Compound I for mammalian cells, human hepatoma cell line HepG2 were exposed to Compound I and the (LD50) was determined. Briefly, HepG2 human hepatoma cells (American Type Culture Collection, Bethesda Md.) were plated at 1×10^5 cells/well in tissue culture treated 96 well plates and incubated at 5% CO2, 37° C. for 18 h prior to initiation of the assay. The compound stocks at 100 mM in DMSO were added to DM (defined media, media without serum with added insulin, selenium and transferrin) at an initial concentration of 1000 μM and serially diluted 1 to 3 in DM in a 96 well plate. For 20 μL of a test solution, 3.5 μL sample is added to 346.5 μL media for an initial concentration of 1000 μM. These dilutions are added to the cells at final sample concentrations between 0.5 and 1000 μM (<1% DMSO). Controls included: media only (negative control) and 0.1% Triton-X (positive control). Control drugs (tamoxifen and 2-thiouracil) were also used to verify each assay. The samples were incubated at 37° C. in humidified 5% CO2 atmosphere for 4 h.
# The plate was read directly on the Tecan Spectrafluor Plus reader in the fluorescent mode at excitation 530 nm and emission 595 nm. The blank was subtracted from the total fluorescence to give the net fluorescence for that well. This total was compared to the control in the absence of the compound. An LD50 (concentration at 50% of lethal dose) is calculated as the concentration that leads to a response of 50% compared to the control cells. Thus, cytotoxicity is measured as percent of inhibition of cell viability as determined by the Alamar Blue assay.
# C. albicans [5] = assay: C. albicans overnight growth inhibition; assay type: cell-based, Candida albicans; set-up: concentration or dose not given beside the values
# [6] = test system: HepG2 human hepatoma cells; conditions: cited from earlier work
# C. albicans [7] = assay: Mouse model of fungal invasion, kidney histology score (Compound III in diet); assay type: in vivo; conditions: mice, powdered diet supplemented from t=−24 h to t=48 h, FIG. 2
# Description: A mouse model of fungal invasion was used to examine the in vivo efficacy of orally administered Compound III in reducing invasion by C. albicans. Briefly, one day prior to infection (t=−24 h) mice were switched to a powdered diet supplemented Compound III (treatment mice) or no supplement (control mice). This diet was continued until the mice were sacrificed at t=48 h. The kidneys of the mice were then examined for histologic signs of fungal invasion. In the scoring system used, a score of 5 indicates the presence of many, large fungus-dominated lesions, a score of 3 indicates the presence of many inflammatory lesion and fungus-dominated lesion of mixed size, and a score of 1 indicates few, mainly inflammatory lesions.
Compound,IC50 [2] [nM],C. albicans Phenotype Rating (C. albicans (MC303)),IC50 [3] [nM],AFDD Mammalian Cytotoxicity LD50 [4] [µM],C. albicans Overnight Growth Inhibition (C. albicans [5]) [%],other results
CCCNc1ccc(S(=O)(=O)Nc2cc(C)on2)cc1 [Compound II],,,,,,number of lesions on kidneys (C. albicans [1]): decreases the number of lesion relative to the control
CCc1ccc(S(=O)(=O)Nc2cc(C)on2)cc1,> 20000,4,1610,>1000,−78.9,
Cc1cc(NS(=O)(=O)c2ccc(OC(F)(F)F)cc2)no1,> 20000,4,10700,>1000,4.0,
Cc1cc(NS(=O)(=O)c2ccc(-c3ccco3)cc2)no1,> 20000,4,39,>1000,23.9,
"Cc1cc(NS(=O)(=O)c2ccc(-c3cc(F)cc(F)c3)cc2)no1 [Example 1, N-(5-methyl-3-isoxazolyl)-4′-(3,5-difluorophenyl)benzensulfonamide]",,,,,,melting point: 175 °C
"CCCCc1ccc(S(=O)(=O)Nc2cc(C)on2)s1 [Example 2, 5-Butyl-N-(5-methylisoxazol-3yl)thiophene-2-sulfonamide]",,,,,,melting point: 96.5 to 100.7 °C
"O=c1cc[nH]c(=S)[nH]1 [Compound 2-thiouracil, 2-thiouracil]",,,,,,expected LD50 of control drug [6]: > 1000 µM
Cc1cc(NS(=O)(=O)c2ccc(-c3ccc(F)cc3F)cc2)no1 [Compound III],,,,,,kidney histology score (severity of fungal invasion) (C. albicans [7]): decreases severity of fungal invasion relative to the control
CCCCCCc1ccc(S(=O)(=O)Nc2cc(C)on2)cc1,2860,2 and 4 and 5,9.9,449.1,32.5,
